Measurements: patent publication US20190374506A1, “COMPOSITIONS AND METHODS FOR TREATING CANCER” (BETH ISREAL DEACONESS MEDICAL CENTER, priority 2016, published 2019)

Columns and labels:
[1] = tested on: Wwp1^+/+ and Wwp1^−/− MEFs; experiment: Growth curves of Wwp1+/+ and Wwp1-/- MEFs treated with I3C; assay type: cell-based, mouse; conditions: 100 μM I3C
Experimental: FIG. 10C provides growth curves of Wwp1^+/+ and Wwp1^−/− MEFs treated with 100 μM I3C. Representative pictures of the cells at Day 3 are shown below. Whether targeting WWP1/NEDD4-1, thereby enhancing PTEN dimerization and function, could offer a unique opportunity to treat MYC-driven cancers was investigated. […] As there is no small pharmacological inhibitor currently available to suppress/inhibit WWP1 activity, Indole-3-Carbinol (I3C), a potential WWP1 inhibitor, which suppresses the WWP1 activity through binding to its HECT domain, was used. First, to assess the on-target effects of I3C towards WWP1, Wwp1^−/− MEFs were used. […] Additionally, two independent PTEN stably knocked-down cells were generated. […] At 8 hours post-transfection, cells were trypsinized, resuspended, and seeded in three separate 12-well plates at a final density of 20,000/well. Starting the following day (d0), one plate per day was washed once with PBS, fixed in 10% formalin solution for 10 minutes at room temperature, and kept in PBS at 4° C. On the last day, all of the wells were stained with crystal violet. After lysis with 10% acetic acid, optical density was read at 595 nm.

WWP1 = WWP1 (Homo sapiens, UniProt Q9H0M0); experiment: MicroScale Thermophoresis (MST) binding analysis of I3C towards WWP1
Text: FIG. 10B provides the MST analysis of I3C towards WWP1. […] When I3C was superimposed onto the covalent inhibitor and WWP1 onto NEDD4-1, a model was generated showing I3C-bound WWP1 with the binding pocket formed by residues F577, L630, Y628, C629, N650, and Y656. […] The experiments of this example next confirmed this hypothesis by MicroScale Thermophoresis (MST) binding analysis.

Sequence of WWP1 (Q9H0M0 whole entry): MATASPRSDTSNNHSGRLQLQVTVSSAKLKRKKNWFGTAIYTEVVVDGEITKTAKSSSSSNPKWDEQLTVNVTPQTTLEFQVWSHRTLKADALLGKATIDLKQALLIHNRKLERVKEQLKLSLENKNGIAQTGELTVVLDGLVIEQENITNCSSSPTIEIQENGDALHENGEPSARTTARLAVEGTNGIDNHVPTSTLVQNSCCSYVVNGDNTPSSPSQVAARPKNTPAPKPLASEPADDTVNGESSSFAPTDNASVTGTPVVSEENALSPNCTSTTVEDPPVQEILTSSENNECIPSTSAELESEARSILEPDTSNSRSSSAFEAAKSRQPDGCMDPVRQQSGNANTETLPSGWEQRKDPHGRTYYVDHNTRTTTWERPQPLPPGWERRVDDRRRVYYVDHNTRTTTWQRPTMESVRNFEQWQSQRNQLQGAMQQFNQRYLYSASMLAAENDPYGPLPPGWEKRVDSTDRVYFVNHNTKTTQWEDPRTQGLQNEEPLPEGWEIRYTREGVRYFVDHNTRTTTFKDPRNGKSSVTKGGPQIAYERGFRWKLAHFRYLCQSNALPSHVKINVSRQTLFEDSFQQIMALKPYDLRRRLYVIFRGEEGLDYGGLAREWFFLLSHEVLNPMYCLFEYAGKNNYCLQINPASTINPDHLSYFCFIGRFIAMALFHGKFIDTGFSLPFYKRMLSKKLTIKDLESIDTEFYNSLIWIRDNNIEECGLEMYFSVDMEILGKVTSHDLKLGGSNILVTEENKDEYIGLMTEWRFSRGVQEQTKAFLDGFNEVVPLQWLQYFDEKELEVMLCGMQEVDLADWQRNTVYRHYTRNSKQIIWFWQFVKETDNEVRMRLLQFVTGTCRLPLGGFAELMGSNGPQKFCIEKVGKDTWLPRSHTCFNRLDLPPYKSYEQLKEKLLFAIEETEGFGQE

SMILES: OCc1c[nH]c2ccccc12 [I3C, indole-3-carbinol]
- sensitivity of Wwp1−/− cells to I3C treatment compared to Wwp1+/+ cells [1]: more resistant
- binding affinity for WWP1 compared to NEDD4-1 (WWP1; MST Kd for WWP1 versus literature Kd for NEDD4-1): significantly stronger binding affinity
- Kd (WWP1; MST binding analysis, read-out: dissociation constant (Kd) of I3C binding to WWP1): ~120 nM
